Measurements published in US20100216661A1, “Diagnostic Assay” (priority 2007, published 2010).

Assays:
[1] = system: anti-RhD monoclonal antibody (T27); test: LiquiChip Ni-NTA microsphere bead assay (Luminex 100), anti-RhD; assay type: binding, Human; settings: FIG. 12; peptide with C-terminal 6 Histidine tag; Luminex 100 Analyser
Protocol: (§1) Further confirmation that the peptide mimotopes can specifically bind antibodies raised to native blood group antigens was achieved following the immobilisation of peptide mimotopes onto polystyrene LiquiChip Ni-NTA microsphere beads (Qiagen).
(§2) Peptide mimotopes (e.g. Fyb16; RhD12) were synthesised with a C-terminal tag consisting of 6 Histidine amino acids. Stock solutions (4 μg/ml) of the 6×His tagged peptide mimotopes were prepared in PBS/0.1% BSA. The peptides were immobilised onto the beads using the Ni-NTA groups attached to the surface of the beads, as follows. A 50 μl volume of a 4 μg/ml peptide stock (Fyb16 or RhD12) was mixed with an equal volume of LiquiChip Ni-NTA beads (Bead 50 or Bead 52, respectively). Following incubation with mixing at 4° C. overnight, the Bead/peptide mixture was diluted with 900 μl of PBS/0.1% BSA. The Bead/peptide mixture was vortexed for 2 minutes and then a 10 μl volume was aliquoted into the well of a 96-well, round-bottomed. ELISA plate (Nunc). […] Confirmation of bound monoclonal antibody was determined by the detection of a phycoerythrin fluorochrome signal. The intensity of the signal equates to the quantity of monoclonal antibody bound to the immobilised peptide mimotope.

[2] = system: anti-RhD monoclonal antibody (T27); test: Modified gel agglutination assay with superparamagnetic TALON beads, anti-RhD; assay type: binding, Human; settings: FIG. 13; His-tagged peptide; TALON Dynabeads; NaCl gel card; read visually; anti-Fy^b LM447 as comparison chamber
Protocol: (§3) The ability of peptide mimotopes to specifically bind antibodies was further tested using superparamagnetic polystyrene beads (TALON Dynabeads; Invitrogen) in a modified gel agglutination assay.
(§4) A 50 μl volume of the magnetic beads was added to 700 μl of TBS (50 mM Tris-HCl pH7.5; 150 mM NaCl). Following mixing for 5 minutes at room temperature, the magnetic beads were isolated using a Magnetic Particle Concentrator (Invitrogen). The supernatant was discarded and the beads were washed for 5 minutes in 700 μl of TBS. The beads were again separated from the buffer using the MPC magnet, and then resuspended in 700 μl of TBS. Peptide mimotopes (e.g. Fyb16; RhD12) were synthesised with a C-terminal tag consisting of 6 Histidine amino acids. Stock solutions (100 μg/ml) of the 6×His tagged peptide mimotopes were prepared in PBS.
A 50 μl volume of diluted TALON beads was placed in the reaction chamber of an NaCl gel card (ID Microtyping System; Diamed), together with a 50 μl volume of diluted His-tagged peptide mimotope (e.g. RhD12) and 100 μl of test human monoclonal antibody (e.g. T27: anti-RhD). The gel card was incubated at 37° C. for 1 hour in an Incubator-ID (DiaMed). Following incubation, the card was centrifuged for 10 minutes in an ID Centrifuge 24S (DiaMed). Antibody-positive reactions are visualised by a layer of beads upon the surface of the gel matrix. […]

[3] = system: anti-Fy^b monoclonal antibody (LM447); test: LiquiChip Ni-NTA microsphere bead assay (Luminex 100), anti-Fy^b; assay type: binding, Murine; settings: FIG. 11; peptide with C-terminal 6 Histidine tag; Luminex 100 Analyser
Protocol: as §1, §2

[4] = system: anti-Fy^b monoclonal antibody (LM447); test: Modified gel agglutination assay with superparamagnetic TALON beads, anti-Fy^b; assay type: binding, Murine; settings: FIG. 14; His-tagged peptide; TALON Dynabeads; NaCl gel card with sheep anti-mouse IgG; read visually; anti-RhD T27 as comparison chamber
Protocol: as §3, §4
To test the binding of a murine monoclonal antibody (e.g. LM447: anti-Fy^b monoclonal antibody), a 1 μl volume of sheep anti-mouse IgG is first added to the reaction chamber of an NaCl gel card and allowed to equilibrate with the gel matrix for 10 minutes at room temperature, prior to the addition of a 50 μl volume of diluted TALON beads, a 50 μl volume of diluted His-tagged peptide mimotope (e.g. Fyb16) and 100 μl of the test murine monoclonal antibody (e.g. LM447: anti-Fy^b). […] Again the reaction was read visually.

Binding of anti-RhD antibody T27 to peptide immobilised on LiquiChip Ni-NTA microsphere beads (phycoerythrin signal) [1] | Binding of anti-RhD antibody T27 to peptide on superparamagnetic polystyrene beads, modified gel agglutination assay [2] | Binding of anti-Fy^b antibody LM447 to peptide immobilised on LiquiChip Ni-NTA microsphere beads (phycoerythrin signal) [3] | Binding of anti-Fy^b antibody LM447 to peptide on superparamagnetic polystyrene beads, modified gel agglutination assay [4] | Substance
specific binding | specific binding |  |  | RhD12: RhD peptide mimotope, Table 4 (HQNPWLLWPRGF)
 |  | specific binding | specific binding | FQPNPPPSFAAP [Fyb16]
